# Source: patent US20140179664A1, “Heterocyclyl Pyrimidine Analogues As JAK Inhibitors” (Cellzome Limited, priority 2011, published 2014)
# Biological target: T1, JAK1 (Homo sapiens, UniProt P23458)
# T1 construct: endogenous in cells; host or cells: Molt4 (ATCC CRL-1582) and Ramos (ATCC CRL-1596), mixed lysate 1:2
# Assay: Kinobeads assay, JAK1
# Type: binding
# Conditions: mixed Molt4/Ramos lysate, read-out: Inhibition values (IC50) JAK1
# Summary of the method: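 Competitive pulldown in combined Molt4 and Ramos lysates (1 vs 2 volumes): compound, as a nine-point 1:3 series, and kinobeads were shaken together for 3 hours in a cold room. Captured JAK1 was quantified on an infrared-read antibody dot blot and IC50 calculated. Controls held 2% DMSO without compound.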
# T1 sequence (P23458 whole entry): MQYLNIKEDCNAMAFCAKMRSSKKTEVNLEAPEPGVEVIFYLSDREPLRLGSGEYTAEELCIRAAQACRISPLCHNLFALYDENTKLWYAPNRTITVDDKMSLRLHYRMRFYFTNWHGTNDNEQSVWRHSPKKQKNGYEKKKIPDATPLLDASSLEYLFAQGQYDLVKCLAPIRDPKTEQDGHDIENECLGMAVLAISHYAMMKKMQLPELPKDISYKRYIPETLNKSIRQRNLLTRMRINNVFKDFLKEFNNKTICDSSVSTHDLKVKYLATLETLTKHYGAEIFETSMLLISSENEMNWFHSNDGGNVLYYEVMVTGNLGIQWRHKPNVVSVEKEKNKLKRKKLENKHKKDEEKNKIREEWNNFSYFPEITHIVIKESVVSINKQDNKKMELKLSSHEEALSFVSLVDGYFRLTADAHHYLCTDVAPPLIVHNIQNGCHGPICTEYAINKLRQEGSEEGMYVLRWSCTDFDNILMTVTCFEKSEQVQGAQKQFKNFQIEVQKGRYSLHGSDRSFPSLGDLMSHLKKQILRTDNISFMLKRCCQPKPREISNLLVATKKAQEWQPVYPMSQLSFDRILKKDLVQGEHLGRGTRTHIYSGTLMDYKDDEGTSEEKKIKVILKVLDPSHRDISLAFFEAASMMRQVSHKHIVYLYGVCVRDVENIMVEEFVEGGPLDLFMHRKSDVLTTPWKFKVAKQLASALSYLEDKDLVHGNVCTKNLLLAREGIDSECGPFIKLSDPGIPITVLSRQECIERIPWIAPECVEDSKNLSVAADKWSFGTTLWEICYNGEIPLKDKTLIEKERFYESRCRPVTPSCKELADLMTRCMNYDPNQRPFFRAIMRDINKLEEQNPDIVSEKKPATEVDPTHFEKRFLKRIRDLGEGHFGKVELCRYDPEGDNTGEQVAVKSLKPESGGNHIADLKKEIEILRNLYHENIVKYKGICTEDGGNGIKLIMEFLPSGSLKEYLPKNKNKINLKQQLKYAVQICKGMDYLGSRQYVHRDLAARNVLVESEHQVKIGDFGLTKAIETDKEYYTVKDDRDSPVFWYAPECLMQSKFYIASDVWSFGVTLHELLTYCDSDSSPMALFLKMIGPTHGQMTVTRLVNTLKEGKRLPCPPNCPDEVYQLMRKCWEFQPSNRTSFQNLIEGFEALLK
smiles,measurement,value
Cn1cc(Nc2ncc(Cl)c(N[C@H](C(=O)NC3CCCC3)c3ccccc3)n2)cn1 [Compound 59],IC50,> 10000 nM
O=C([C@@H](Nc1nc(Nc2cnn(CCO)c2)ncc1Cl)c1ccccc1)N1CCCC1 [Compound 35],IC50,1000 to 10000 nM
O=C([C@@H](Nc1nc(Nc2cnn(CCO)c2)ncc1Cl)c1ccccc1)N1CCCCC1 [Compound 51],IC50,> 10000 nM
Cn1cc(Nc2ncc(Cl)c(NC(CO)c3ccccc3)n2)cn1 (centres unmarked) [Compound 1],IC50,1000 to 10000 nM
COC(=O)C(Nc1nc(Nc2cnn(CCO)c2)ncc1Cl)c1ccccc1 (centres unmarked) [Compound 15],IC50,1000 to 10000 nM
COC(=O)C(Nc1nc(Nc2cnn(C)c2)ncc1Cl)c1ccccc1 (centres unmarked) [Compound 16],IC50,1000 to 10000 nM
CNC(=O)[C@@H](Nc1nc(Nc2cnn(C)c2)ncc1Cl)c1ccccc1 [Compound 20],IC50,1000 to 10000 nM
CC(C)(O)Cn1cc(Nc2ncc(Cl)c(NC(CO)c3ccccc3F)n2)cn1 (centres unmarked) [Compound 57],IC50,1000 to 10000 nM
OCCn1ccc(Nc2ncc(Cl)c(NC(CO)c3c(F)cccc3F)n2)n1 (centres unmarked) [Compound 45],IC50,> 10000 nM
OCCn1cc(Nc2ncc(Cl)c(N[C@H](CO)c3ccccc3F)n2)cn1 [Compound 77],IC50,100 to 1000 nM
COCCNC(=O)[C@@H](Nc1nc(Nc2cnn(CCO)c2)ncc1Cl)c1ccccc1 [Compound 48],IC50,100 to 1000 nM
Cn1cc(Nc2ncc(Cl)c(N[C@@H](CO)c3ccccc3)n2)cn1 [Compound 54],IC50,> 10000 nM
Cn1ccc(Nc2ncc(Cl)c(N[C@H](CO)c3ccccc3)n2)n1 [Compound 11],IC50,> 10000 nM
OCCn1cc(Nc2ncc(Cl)c(NC(CO)c3c(F)cccc3F)n2)cn1 (centres unmarked) [Compound 43],IC50,100 to 1000 nM
NC(=O)Cn1cc(Nc2ncc(Cl)c(N[C@H](CO)c3ccccc3)n2)cn1 [Compound 56],IC50,100 to 1000 nM
NC(=O)Cn1cc(Nc2ncc(Cl)c(N[C@H](CO)c3ccccn3)n2)cn1 [Compound 81],IC50,100 to 1000 nM
Cn1cc(Nc2ncc(Cl)c(NC(C(=O)O)c3ccccc3)n2)cn1 (centres unmarked) [Compound 18],IC50,1000 to 10000 nM
CC(O)Cn1cc(Nc2ncc(Cl)c(NC(CO)c3c(F)cccc3F)n2)cn1 (centres unmarked) [Compound 42],IC50,1000 to 10000 nM
COc1cccc([C@@H](CO)Nc2nc(Nc3cnn(CC(N)=O)c3)ncc2Cl)c1 [Compound 84],IC50,1000 to 10000 nM
CN(C)C(=O)[C@@H](Nc1nc(Nc2cnn(C)c2)ncc1Cl)c1ccccc1 [Compound 25],IC50,1000 to 10000 nM
OCCCn1cc(Nc2ncc(Cl)c(NC(CO)c3ccccc3F)n2)cn1 (centres unmarked) [Compound 64],IC50,1000 to 10000 nM
O=C(NC1CCCC1)[C@@H](Nc1nc(Nc2cnn(CCO)c2)ncc1Cl)c1ccccc1 [Compound 60],IC50,1000 to 10000 nM
Cn1cc(Nc2ncc(Cl)c(NC(CO)c3c(F)cccc3F)n2)cn1 (centres unmarked) [Compound 44],IC50,1000 to 10000 nM
Cn1cc(Nc2ncc(Cl)c(NC(CO)c3ccccc3F)n2)cn1 (centres unmarked) [Compound 37],IC50,1000 to 10000 nM
CNC(=O)Cn1cc(Nc2ncc(Cl)c(N[C@H](CO)c3cccnc3)n2)cn1 [Compound 170],IC50,1000 to 10000 nM
Cn1cc(Nc2ncc(Cl)c(NC(CO)c3cccc(Br)c3)n2)cn1 (centres unmarked) [Compound 52],IC50,1000 to 10000 nM
O=C(c1cc(Nc2ncc(Cl)c(N[C@H](CO)c3ccccc3)n2)c[nH]1)N1CCOCC1 [Compound 13],IC50,1000 to 10000 nM
OCCn1cc(Nc2ncc(Cl)c(NC(CO)c3ccc(F)cc3)n2)cn1 (centres unmarked) [Compound 72],IC50,1000 to 10000 nM
CC(C)(O)Cn1cc(Nc2ncc(Cl)c(NC(CO)c3c(F)cccc3F)n2)cn1 (centres unmarked) [Compound 62],IC50,1000 to 10000 nM
Cn1cc(Nc2ncc(Cl)c(N[C@H](C(=O)NCCO)c3ccccc3)n2)cn1 [Compound 46],IC50,1000 to 10000 nM
OCCn1ccc(Nc2ncc(Cl)c(NC(CO)c3ccccc3F)n2)n1 (centres unmarked) [Compound 50],IC50,> 10000 nM
CN(C)C(=O)[C@@H](Nc1nc(Nc2cnn(CCO)c2)ncc1Cl)c1ccccc1 [Compound 26],IC50,1000 to 10000 nM
CCNC(=O)[C@@H](Nc1nc(Nc2cnn(CCO)c2)ncc1Cl)c1ccccc1 [Compound 27],IC50,1000 to 10000 nM
Cn1cc(Nc2ncc(Cl)c(NC(CO)Cc3ccccc3)n2)cn1 (centres unmarked) [Compound 14],IC50,1000 to 10000 nM
OCCn1ccc(Nc2ncc(Cl)c(NC(CO)c3cccc(F)c3)n2)n1 (centres unmarked) [Compound 41],IC50,> 10000 nM
Cn1cc(Nc2ncc(Cl)c(NC(CO)c3cccc(F)c3)n2)cn1 (centres unmarked) [Compound 40],IC50,1000 to 10000 nM
Cc1cnc(Nc2cnn(CCO)c2)nc1NC(CO)c1ccccc1 (centres unmarked) [Compound 12],IC50,1000 to 10000 nM
CC(C)(O)Cn1cc(Nc2ncc(Cl)c(NC(CO)c3cccc(F)c3)n2)cn1 (centres unmarked) [Compound 61],IC50,1000 to 10000 nM
CCOC(=O)Cn1cc(Nc2ncc(Cl)c(N[C@H](CO)c3ccccc3)n2)cn1 [Compound 22],IC50,100 to 1000 nM
OCCn1cc(Nc2ncc(Cl)c(NC(CO)Cc3ccccc3)n2)cn1 (centres unmarked) [Compound 19],IC50,100 to 1000 nM
COc1cccc([C@@H](CO)Nc2nc(Nc3cnn(C)c3)ncc2Cl)c1 [Compound 82],IC50,1000 to 10000 nM
CNC(=O)Cn1cc(Nc2ncc(Cl)c(NC(CO)c3cccc(F)c3)n2)cn1 (centres unmarked) [Compound 32],IC50,1000 to 10000 nM
Cc1cnc(Nc2cnn(CC(F)F)c2)nc1N[C@H](CO)c1cc(F)cc(F)c1 [Compound 167],IC50,1000 to 10000 nM
OCCn1cc(Nc2ncc(Cl)c(N[C@@H](CO)c3ccccc3)n2)cn1 [Compound 63],IC50,1000 to 10000 nM
COc1cccc([C@@H](CO)Nc2nc(Nc3cnn(CCO)c3)ncc2Cl)c1 [Compound 83],IC50,1000 to 10000 nM
COCCNC(=O)[C@@H](Nc1nc(Nc2cnn(C)c2)ncc1Cl)c1ccccc1 [Compound 29],IC50,1000 to 10000 nM
CCNC(=O)[C@@H](Nc1nc(Nc2cnn(C)c2)ncc1Cl)c1ccccc1 [Compound 28],IC50,1000 to 10000 nM
OCCn1cc(Nc2ncc(Cl)c(NC(CO)c3cccc(F)c3)n2)cn1 (centres unmarked) [Compound 39],IC50,100 to 1000 nM
Cc1cnc(Nc2cnn(CC(F)F)c2)nc1NC(CO)c1c(F)cccc1F (centres unmarked) [Compound 168],IC50,1000 to 10000 nM
CNC(=O)Cn1cc(Nc2ncc(Cl)c(N[C@H](CCO)c3ccccc3)n2)cn1 [Compound 66],IC50,1000 to 10000 nM
CC(C)(C(N)=O)n1cc(Nc2ncc(Cl)c(N[C@H](CO)c3ccccc3F)n2)cn1 [Compound 73],IC50,1000 to 10000 nM
OCC[C@@H](Nc1nc(Nc2cnn(CCO)c2)ncc1Cl)c1ccccc1 [Compound 65],IC50,1000 to 10000 nM
O=C(O)C(Nc1nc(Nc2cnn(CCO)c2)ncc1Cl)c1ccccc1 (centres unmarked) [Compound 17],IC50,> 10000 nM
CNC(=O)Cn1cc(Nc2ncc(Cl)c(NC(CO)c3c(F)cccc3F)n2)cn1 (centres unmarked) [Compound 31],IC50,1000 to 10000 nM
COc1ccccc1[C@@H](CO)Nc1nc(Nc2cnn(CCO)c2)ncc1Cl [Compound 76],IC50,100 to 1000 nM
Cn1cc(Nc2ncc(Cl)c(NC(CO)c3cccc(N4CC5(COC5)C4)c3)n2)cn1 (centres unmarked) [Compound 53],IC50,> 10000 nM
O=C(NCCO)[C@@H](Nc1nc(Nc2cnn(CCO)c2)ncc1Cl)c1ccccc1 [Compound 47],IC50,100 to 1000 nM
CNC(=O)Cn1cc(Nc2ncc(Cl)c(NC(CO)c3ccccc3F)n2)cn1 (centres unmarked) [Compound 33],IC50,1000 to 10000 nM
COc1ccccc1[C@@H](CO)Nc1nc(Nc2cnn(C)c2)ncc1Cl [Compound 74],IC50,100 to 1000 nM
Cn1cc(Nc2ncc(F)c(NC(CO)c3ccccc3)n2)cn1 (centres unmarked) [Compound 2],IC50,> 10000 nM
CC(C)OC(=O)Cn1cc(Nc2ncc(Cl)c(N[C@H](CO)c3ccccc3)n2)cn1 [Compound 21],IC50,1000 to 10000 nM
OCCn1cc(Nc2ncc(Cl)c(NC(CO)c3ccccc3F)n2)cn1 (centres unmarked) [Compound 36],IC50,100 to 1000 nM
Cn1cc(Nc2ncc(Cl)c(NC(CO)c3ccc(F)cc3)n2)cn1 (centres unmarked) [Compound 71],IC50,1000 to 10000 nM
OC[C@@H](Nc1nc(Nc2cn[nH]c2)ncc1Cl)c1ccccc1F [Compound 79],IC50,100 to 1000 nM
CN(CC#N)C(=O)Cn1cc(Nc2ncc(Cl)c(N[C@H](CO)c3ccccc3)n2)cn1 [Compound 70],IC50,100 to 1000 nM
OCCn1cc(Nc2ncc(Cl)c(N[C@H](CO)c3ccccn3)n2)cn1 [Compound 80],IC50,100 to 1000 nM
Cc1cnc(Nc2cnn(CC(=O)N3CCOCC3)c2)nc1NC(CO)c1c(F)cccc1F (centres unmarked) [Compound 169],IC50,1000 to 10000 nM
COC[C@@H](Nc1nc(Nc2cnn(C)c2)ncc1Cl)c1ccccc1 [Compound 55],IC50,> 10000 nM
CC(O)Cn1cc(Nc2ncc(Cl)c(NC(CO)c3cccc(F)c3)n2)cn1 (centres unmarked) [Compound 38],IC50,100 to 1000 nM
Cn1cc(Nc2ncc(Cl)c(NC(CO)c3cccc(-c4cnn(C)c4)c3)n2)cn1 (centres unmarked) [Compound 69],IC50,> 10000 nM
Cn1cc(Nc2ncc(Cl)c(N[C@H](C(=O)N3CCCC3)c3ccccc3)n2)cn1 [Compound 34],IC50,1000 to 10000 nM
Cn1cc(Nc2ncc(Cl)c(N[C@H](CO)c3ccccc3F)n2)cn1 [Compound 58],IC50,1000 to 10000 nM
O=C(O)Cn1cc(Nc2ncc(Cl)c(N[C@H](CO)c3ccccc3)n2)cn1 [Compound 24],IC50,1000 to 10000 nM
Cn1cc(Nc2ncc(Cl)c(N[C@H](C(=O)N3CCCCC3)c3ccccc3)n2)cn1 [Compound 49],IC50,1000 to 10000 nM
